Assay results taken from patent US12168659B2, “Thioamide derivative and preparation method and application thereof” (Yunbaiyao Zhengwu Science and Technology (Shanghai) Co., …, priority 2022, dated 2024).

Test system: human malignant melanoma cells (A375)
Experiment: Anti-proliferative activity, CCK-8 assay, A375
Format: cell-based
Conditions: A-375, 72 h incubation
Experimental: (§1) Experimental procedure: Sample solutions with a concentration of 20 μM were prepared and serially diluted 5-fold downwards to obtain 10 concentrations: 20000 nM, 4000 nM, 800 nM, 160 nM, 32 nM, 6.4 nM, 1.28 nM, 0.256 nM, 0.0512 nM and 0.01024 nM. The sample solutions were incubated with the above cell lines for 72 h. Then 10 μL of a CCK-8 solution was then added to each well, followed by a further 2 hours incubation. An optical density (OD) value was measured at 450 nm using a fully automated microplate reader. Data were processed using GraphPad Prism 7 to calculate IC50.

| Compound | IC50 [nM] |
| --- | --- |
| CC(=S)Nc1cc(-n2c(=O)n(C3CC3)c(=O)c3c(Nc4ccc(I)cc4F)n(C)c(=O)c(C)c32)ccc1F [Compound 11] | 2.4 |
| Cc1c(=O)n(C)c(Nc2ccc(I)cc2F)c2c(=O)n(C3CC3)c(=O)n(-c3cccc(NC(=S)CN)c3)c12 [Compound 12] | 3.1 |
| Cc1c(=O)n(C)c(Nc2ccc(I)cc2F)c2c(=O)n(C3CC3)c(=O)n(-c3cccc(NC(=S)C(=O)O)c3)c12 [Compound 13] | 4.2 |
| CC(=O)Nc1cccc(-n2c(=O)n(C3CC3)c(=O)c3c(Nc4ccc(I)cc4F)n(C)c(=O)c(C)c32)c1 [Trametinib, reference compound] | 12.5 |

Test system: human colon cancer cells (HCT-15)
Experiment: Anti-proliferative activity, CCK-8 assay, HCT-15
Format: cell-based
Conditions: 72 h incubation
Experimental: as §1

| Compound | IC50 [nM] |
| --- | --- |
| CC(=S)Nc1cc(-n2c(=O)n(C3CC3)c(=O)c3c(Nc4ccc(I)cc4F)n(C)c(=O)c(C)c32)ccc1F [Compound 11] | 21.8 |
| Cc1c(=O)n(C)c(Nc2ccc(I)cc2F)c2c(=O)n(C3CC3)c(=O)n(-c3cccc(NC(=S)CN)c3)c12 [Compound 12] | 22.7 |
| Cc1c(=O)n(C)c(Nc2ccc(I)cc2F)c2c(=O)n(C3CC3)c(=O)n(-c3cccc(NC(=S)C(=O)O)c3)c12 [Compound 13] | 31.7 |
| CC(=O)Nc1cccc(-n2c(=O)n(C3CC3)c(=O)c3c(Nc4ccc(I)cc4F)n(C)c(=O)c(C)c32)c1 [Trametinib, reference compound] | 98.3 |

Target: MEK1 (Homo sapiens, UniProt Q02750)
Experiment: Raf-MEK-ERK cascade kinase assay using recombinant protein (MEK1)
Format: biochemical
Conditions: 10 μM ATP, active B-Raf (V599E), 30° C. 30 minutes
Experimental: (§2) Experimental purpose: The inhibitory activity of the compounds on MEK1 and MEK2 was measured by performing a Raf-MEK-ERK cascade kinase assay using recombinant protein.
(§3) Experimental method: 2 mg of dephosphorylated myelin basic protein (MBP) was dispersed in a 0.2 M sodium carbonate aqueous solution (pH=9.4). The mixed solution was then coated onto an enzyme-linked immunosorbent assay (ELISA) plate (U-shaped bottom plate) and left to stand overnight at 4° C. […] Compound solutions with serial concentrations were tested in triplicate wells. A mixture of 2 ng of inactivated MEK1 (or 4 ng of MEK2) and 50 ng of inactivated ERK2 was dissolved in a buffer solution (20 mM MOPS [pH=7.4], 0.1% 2-mercaptoethanol, 0.1% BSA) at room temperature, and then treated with the above serial solutions on a flat plate. The plate was covered with 1% bovine serum albumin (BSA) and pre-incubated for 10 minutes. […] After incubation at 30° C. for 30 minutes, phosphorylation of MBP by ERK was detected using peroxidase-labeled anti-phosphorylated MBP antibodies. Data curves were plotted and half maximal inhibitory concentration (IC50) values were calculated using XLFit.

Chain of MEK1 (Q02750 whole entry): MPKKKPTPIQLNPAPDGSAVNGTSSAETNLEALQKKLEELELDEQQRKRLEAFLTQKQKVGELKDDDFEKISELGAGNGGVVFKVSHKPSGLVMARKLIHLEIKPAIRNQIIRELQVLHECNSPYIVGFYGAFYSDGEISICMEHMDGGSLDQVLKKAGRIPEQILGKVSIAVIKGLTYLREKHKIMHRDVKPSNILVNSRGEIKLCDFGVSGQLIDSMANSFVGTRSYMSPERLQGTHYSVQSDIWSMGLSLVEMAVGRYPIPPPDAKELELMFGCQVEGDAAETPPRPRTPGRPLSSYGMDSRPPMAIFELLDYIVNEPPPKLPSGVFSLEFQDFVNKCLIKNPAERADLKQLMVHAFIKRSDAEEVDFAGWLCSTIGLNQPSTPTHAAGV

| Compound | IC50 [nM] |
| --- | --- |
| CC(=S)Nc1cc(-n2c(=O)n(C3CC3)c(=O)c3c(Nc4ccc(I)cc4F)n(C)c(=O)c(C)c32)ccc1F [Compound 11] | 1.37 |
| Cc1c(=O)n(C)c(Nc2ccc(I)cc2F)c2c(=O)n(C3CC3)c(=O)n(-c3cccc(NC(=S)CN)c3)c12 [Compound 12] | 1.51 |
| Cc1c(=O)n(C)c(Nc2ccc(I)cc2F)c2c(=O)n(C3CC3)c(=O)n(-c3cccc(NC(=S)C(=O)O)c3)c12 [Compound 13] | 2.38 |

Test system: human prostate cancer cells (PC-3)
Experiment: Anti-proliferative activity, CCK-8 assay, PC-3
Format: cell-based
Conditions: 72 h incubation
Experimental: as §1

| Compound | IC50 [nM] |
| --- | --- |
| CC(=S)Nc1cc(-n2c(=O)n(C3CC3)c(=O)c3c(Nc4ccc(I)cc4F)n(C)c(=O)c(C)c32)ccc1F [Compound 11] | 2.7 |
| Cc1c(=O)n(C)c(Nc2ccc(I)cc2F)c2c(=O)n(C3CC3)c(=O)n(-c3cccc(NC(=S)CN)c3)c12 [Compound 12] | 2.3 |
| Cc1c(=O)n(C)c(Nc2ccc(I)cc2F)c2c(=O)n(C3CC3)c(=O)n(-c3cccc(NC(=S)C(=O)O)c3)c12 [Compound 13] | 4.5 |
| CC(=O)Nc1cccc(-n2c(=O)n(C3CC3)c(=O)c3c(Nc4ccc(I)cc4F)n(C)c(=O)c(C)c32)c1 [Trametinib, reference compound] | 12.6 |

Target: MEK2 (Homo sapiens, UniProt P36507)
Experiment: Raf-MEK-ERK cascade kinase assay using recombinant protein (MEK2)
Format: biochemical
Conditions: 10 μM ATP, active B-Raf (V599E), 30° C. 30 minutes
Experimental: as §2, §3

Chain of MEK2 (P36507 whole entry): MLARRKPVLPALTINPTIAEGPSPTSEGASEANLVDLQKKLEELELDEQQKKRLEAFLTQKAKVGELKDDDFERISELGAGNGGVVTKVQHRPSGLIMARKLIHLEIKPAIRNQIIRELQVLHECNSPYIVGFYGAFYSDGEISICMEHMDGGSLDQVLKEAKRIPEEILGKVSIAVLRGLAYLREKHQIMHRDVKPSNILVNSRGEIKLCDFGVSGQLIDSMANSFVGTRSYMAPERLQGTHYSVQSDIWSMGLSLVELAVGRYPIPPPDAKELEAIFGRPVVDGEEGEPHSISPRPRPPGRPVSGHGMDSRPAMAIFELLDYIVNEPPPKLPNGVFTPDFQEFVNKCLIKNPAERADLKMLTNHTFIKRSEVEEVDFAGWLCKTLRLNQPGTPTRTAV

| Compound | IC50 [nM] |
| --- | --- |
| CC(=S)Nc1cc(-n2c(=O)n(C3CC3)c(=O)c3c(Nc4ccc(I)cc4F)n(C)c(=O)c(C)c32)ccc1F [Compound 11] | 1.54 |
| Cc1c(=O)n(C)c(Nc2ccc(I)cc2F)c2c(=O)n(C3CC3)c(=O)n(-c3cccc(NC(=S)CN)c3)c12 [Compound 12] | 2.13 |
| Cc1c(=O)n(C)c(Nc2ccc(I)cc2F)c2c(=O)n(C3CC3)c(=O)n(-c3cccc(NC(=S)C(=O)O)c3)c12 [Compound 13] | 2.64 |

Test system: human non-small cell lung cancer cells (A549)
Experiment: Anti-proliferative activity, CCK-8 assay, A549
Format: cell-based
Conditions: 72 h incubation
Experimental: as §1

| Compound | IC50 [nM] |
| --- | --- |
| CC(=S)Nc1cc(-n2c(=O)n(C3CC3)c(=O)c3c(Nc4ccc(I)cc4F)n(C)c(=O)c(C)c32)ccc1F [Compound 11] | 3.4 |
| Cc1c(=O)n(C)c(Nc2ccc(I)cc2F)c2c(=O)n(C3CC3)c(=O)n(-c3cccc(NC(=S)CN)c3)c12 [Compound 12] | 3.1 |
| Cc1c(=O)n(C)c(Nc2ccc(I)cc2F)c2c(=O)n(C3CC3)c(=O)n(-c3cccc(NC(=S)C(=O)O)c3)c12 [Compound 13] | 6.4 |
| CC(=O)Nc1cccc(-n2c(=O)n(C3CC3)c(=O)c3c(Nc4ccc(I)cc4F)n(C)c(=O)c(C)c32)c1 [Trametinib, reference compound] | 33.2 |

Test system: human colon cancer cells (HCT116)
Experiment: Anti-proliferative activity, CCK-8 assay, HCT116
Format: cell-based
Conditions: HCT-116, 72 h incubation
Experimental: as §1

| Compound | IC50 [nM] |
| --- | --- |
| CC(=S)Nc1cc(-n2c(=O)n(C3CC3)c(=O)c3c(Nc4ccc(I)cc4F)n(C)c(=O)c(C)c32)ccc1F [Compound 11] | 3.1 |
| Cc1c(=O)n(C)c(Nc2ccc(I)cc2F)c2c(=O)n(C3CC3)c(=O)n(-c3cccc(NC(=S)CN)c3)c12 [Compound 12] | 3.6 |
| Cc1c(=O)n(C)c(Nc2ccc(I)cc2F)c2c(=O)n(C3CC3)c(=O)n(-c3cccc(NC(=S)C(=O)O)c3)c12 [Compound 13] | 5.2 |
| CC(=O)Nc1cccc(-n2c(=O)n(C3CC3)c(=O)c3c(Nc4ccc(I)cc4F)n(C)c(=O)c(C)c32)c1 [Trametinib, reference compound] | 32.7 |

Test system: not listed separately
Experiment: Body weight change of experimental mice in the xenograft study
Conditions: 3 mg/kg gavage, 30 days
Description: Experimental procedure: The study evaluated the inhibitory effect of compounds administered by gavage against human HCT116 subcutaneous xenograft tumors in the BALB/c nude mouse model by measuring tumor size and calculating tumor volume (TV), relative tumor volume (RTV), relative tumor proliferation rate (T/C), and anti-tumor efficacy (TGI).

| Compound | Weight loss at the end of the experiment / toxicity (FIG. 1) |
| --- | --- |
| Cc1c(=O)n(C)c(Nc2ccc(I)cc2F)c2c(=O)n(C3CC3)c(=O)n(-c3cccc(NC(=S)CN)c3)c12 [Compound 12] | toxicity of Trametinib was higher than that of compounds 2, 8 and 12 |

Test system: human HCT116 subcutaneous xenograft tumors
Experiment: In vivo anti-tumor assay, subcutaneous xenograft model
Set-up: species or system BALB/c nude mouse
Conditions: 3 mg/kg P.O. QD × 30 days
Experimental: Experimental purpose: To evaluate the in vivo efficacy of the compounds in a subcutaneous xenograft model of human cancer cells in a Bagg's albino (BALB/c) nude mouse.
The tumor suppressive efficacy of the compounds was quantified by TGI (%) or relative tumor proliferation rate T/C (%). TGI (%) reflected the tumor growth inhibition rate. TGI(%) was calculated using the following equation: TGI(%)=[1−(mean tumor volume at the end of treatment in a treatment group-mean tumor volume at the start of treatment in the treatment group)/(mean tumor volume at the end of treatment in the solvent control group-mean tumor volume at the start of treatment in the solvent control group)]×100%.
T/C(%) was calculated using the following equation: T/C (%)=TRTV/CRTV×100%, where TRTV was an RTV of the treatment group, and CRTV was an RTV of the negative control group. The RTV was calculated from the results of tumor size measurements according to the following equation: RTV=Vt/V0, where V0 was a mean tumor volume measured on the day of first administration (i.e., day 0), Vt was a mean tumor volume measured on the day indicated, and TRTV and CRTV were obtained from data on the same day.

| Compound | T/C (relative tumor proliferation rate) [%] | TGI (tumor growth inhibition rate) [%] |
| --- | --- | --- |
| Cc1c(=O)n(C)c(Nc2ccc(I)cc2F)c2c(=O)n(C3CC3)c(=O)n(-c3cccc(NC(=S)CN)c3)c12 [Compound 12] | 7.47 | 101.08 |
| CC(=O)Nc1cccc(-n2c(=O)n(C3CC3)c(=O)c3c(Nc4ccc(I)cc4F)n(C)c(=O)c(C)c32)c1 [Trametinib, reference compound] | – | 89.80 |

Same assay, conditions: 3 mg/kg P.O. QD × 30 days, Day 30

| Compound | Tumor volume (Day 30) [mm^3] |
| --- | --- |
| Cc1c(=O)n(C)c(Nc2ccc(I)cc2F)c2c(=O)n(C3CC3)c(=O)n(-c3cccc(NC(=S)CN)c3)c12 [Compound 12] | 128 ± 19 |
| CC(=O)Nc1cccc(-n2c(=O)n(C3CC3)c(=O)c3c(Nc4ccc(I)cc4F)n(C)c(=O)c(C)c32)c1 [Trametinib, reference compound] | 305 ± 34 |

Same assay, conditions: 3 mg/kg P.O. QD × 30 days, compared to the Trametinib group

| Compound | Tumor growth inhibition, tumor volume change (FIG. 2) |
| --- | --- |
| Cc1c(=O)n(C)c(Nc2ccc(I)cc2F)c2c(=O)n(C3CC3)c(=O)n(-c3cccc(NC(=S)CN)c3)c12 [Compound 12] | better inhibitory effects |
